# Test results published in patent US20260085073A1, “PYRAZOLYLCARBOXAMIDE COMPOUNDS AND THEIR USE IN THERAPY” (Hotspot Therapeutics, Inc., priority 2022, published 2026).
# Target: T1, MALT1 (Homo sapiens, UniProt Q9UDY8)
# T1 construct: Avi-tagged FL MALT-1 (Pharmaron, stored at −70° C.); Avi-tag
# T1 sequence (Q9UDY8 1-824): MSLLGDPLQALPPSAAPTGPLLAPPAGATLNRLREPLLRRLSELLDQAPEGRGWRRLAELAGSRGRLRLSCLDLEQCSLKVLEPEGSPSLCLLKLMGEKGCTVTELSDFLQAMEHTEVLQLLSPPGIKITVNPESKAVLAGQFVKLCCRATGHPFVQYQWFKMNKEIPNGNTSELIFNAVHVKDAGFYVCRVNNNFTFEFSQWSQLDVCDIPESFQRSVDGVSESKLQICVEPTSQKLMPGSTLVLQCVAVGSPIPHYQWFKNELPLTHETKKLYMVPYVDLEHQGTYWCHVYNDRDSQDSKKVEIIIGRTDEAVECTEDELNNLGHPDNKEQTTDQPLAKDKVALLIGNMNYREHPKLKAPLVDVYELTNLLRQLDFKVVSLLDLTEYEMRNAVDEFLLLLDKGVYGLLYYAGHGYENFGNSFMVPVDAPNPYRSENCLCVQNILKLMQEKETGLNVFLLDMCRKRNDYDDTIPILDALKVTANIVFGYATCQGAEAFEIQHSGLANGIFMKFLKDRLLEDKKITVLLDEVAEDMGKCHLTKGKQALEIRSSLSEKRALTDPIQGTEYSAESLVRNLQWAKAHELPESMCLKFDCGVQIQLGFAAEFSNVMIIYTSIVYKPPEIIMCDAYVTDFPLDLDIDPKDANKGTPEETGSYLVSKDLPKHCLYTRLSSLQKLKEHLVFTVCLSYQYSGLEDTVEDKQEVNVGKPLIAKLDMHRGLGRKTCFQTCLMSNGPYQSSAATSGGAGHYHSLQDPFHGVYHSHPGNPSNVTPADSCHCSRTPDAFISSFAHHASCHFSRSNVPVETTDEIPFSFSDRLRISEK
# Experiment: MALT1 inhibition assay (MALT-1 Fluorogenic Peptide Cleavage Assay, Ac-LRSR-AMC substrate)
# Format: biochemical
# Details: Avi-tagged FL MALT-1, 30 min pre-incubation, 90 min reaction at room temperature, fluorescence intensity
# Experimental: Example 71—MALT1 Inhibition Assay
# Compounds were tested for ability to bind to MALT1.
# Inhibition of MALT1 activity by the presence of small molecules was evaluated using MALT-1 Fluorogenic Peptide Cleavage Assay. The assay utilizes a quenched AMC-labelled peptide that contains the MALT-1 recognition sequence and cleavage site (LRSR). MALT-1 mediated cleavage of the peptide relieves the quenching and leads to an increase in fluorescence at excitation (342 nm) and emission (441 nm).
# The following reagents were obtained commercially and used to prepare standard reagent formulations as further described below: N-2-hydroxyethylpiperazine-N-2-ethane sulfonic acid (HEPES) (1 M, pH 7.5, stored at 4° C.), sodium citrate (stored at RT), tris(2-carboxyethyl) phosphine hydrochloride (T-CEP) (500 mM, stored at −20° C.), ethylenediaminetetraacetic acid (EDTA) (500 mM, stored at RT), dimethylsulfoxide (DMSO, stored at RT), 3-[(3-cholamidopropyl)dimethylammonio]-1-propane sulphate (CHAPS) (stored at RT), dimethylsulfoxide (DMSO), DMSO (Fisher Scientific, stored at RT), Avi-tagged FL MALT-1 (Pharmaron, stored at −70° C.), Ac-LRSR-AMC Peptide (SM Biochemicals, stored at −20° C.), and ultrapure water (MILLI-QR).
# The standard reagent formulations used in this assay were prepared and stored as follows. A 1.1 M solution of sodium citrate (161.3 g, 500 mL) was prepared and stored at room temperature. A 10% (w/v) CHAPS solution (2.0 g, 20 mL) was prepared and stored at 4° C. A 500 mM HEPES solution having pH of 6.89 was prepared from 200 mL of a 1 M HEPES solution having a pH of 7.5 using concentrated hydrochloric acid and brought to a final volume of 400 mL with MILLI-QR H2O. The substrate, 10 mM Ac-LRSR-AMC Peptide, was prepared (10 mg, 1.370 mL DMSO) and stored at −20° C.
# Compounds were plated to provide a 2% DMSO final concentration using a ProxiPlate-384 Plus F Black 384-shallow well microplate. The assay-ready plates were equilibrated to room temperature. A reaction buffer (30 mL total volume) was prepared by combining HEPES (pH 6.89, 25 mM, 1.5 mL), sodium citrate (660 mM, 18.0 mL), T-CEP (1 mM, 0.06 mL), EDTA ([…], 0.06 mL), CHAPS (0.05%, 0.15 mL), DMSO (2%, 0.6 mL), and MILLI-QR H2O (10.23 mL; 9.63 mL when backfilled to 2% DMSO) followed by thorough mixing. DMSO was added only when compound plates had not been DMSO-backfilled to 2%.
# MALT-1 was thawed and kept on ice. Peptide substrate was thawed on the bench under ambient conditions. A MALT-1 enzyme working stock was prepared from Avi-tagged FL MALT-1 (40 nM in a prepared reagent volume of 16.5 μL) and the reaction buffer (13.0 mL). MALT1 working stock (5 μL) was added to each well of the microplate. MALT-1 was pre-incubated with compounds for 30 minutes at room temperature.
# Two substrate working stocks (Km and 10×Km) were prepared. The 1×Km substrate was prepared from Ac-LRSR-AMC Peptide (50 μM in a prepared reagent volume of 35.0 μL) and the reaction buffer (6.965 mL). The 10×Km substrate was prepared from Ac-LRSR-AMC Peptide (280 μM in a prepared reagent volume of 196.0 μL) and the reaction buffer (6.804 mL). The reaction was initiated by the addition of substrate working stock (5 μL, 50 μM) to Km plates and the addition of substrate working stock (5 μL 280 μM) to 10×Km plates. The plates were covered and incubated on the bench at room temperature for 90 minutes.
# Fluorescence intensity was determined using a CLARIOstar microplate reader (BMG LABTECH) using the optimised AMC mode. Before taking readings, a 70% gain was applied on the neutral control well. Compound data were normalised to % Inhibition and used to plot sigmoidal concentration response curves to yield various parameters including IC50.
row,IC50 [nM],Structure (SMILES)
1,> 10000,Cn1nc([C@@H]2C[C@H]2c2ccccc2)c(C(F)(F)F)c1C(=O)Nc1ccnc(C(F)(F)F)c1 (racemic) [Compound I-40]
2,< 500,"Cn1nc(-c2csc3cnccc23)c(C(F)(F)F)c1C(=O)Nc1ccnc(C(F)(F)F)c1 [Compound I-1, 1-methyl-3-(thieno[2,3-c]pyridin-3-yl)-4-(trifluoromethyl)-N-(2-(trifluoromethyl)pyridin-4-yl)-1H-pyrazole-5-carboxamide]"
3,2500 to 10000,Cn1nc(-c2cccc3c2OCC(=O)N3)c(C(F)(F)F)c1C(=O)Nc1ccnc(C(F)(F)F)c1 [Compound I-2]
4,2500 to 10000,Cn1nc(-c2cccc3c2CCNC3=O)c(C(F)(F)F)c1C(=O)Nc1ccnc(C(F)(F)F)c1 [Compound I-3]
5,< 500,Cn1nc(-c2cccc3ncn(C)c23)c(C(F)(F)F)c1C(=O)Nc1ccnc(C(F)(F)F)c1 [Compound I-4]
6,2500 to 10000,Cn1cc2cccc(-c3nn(C)c(C(=O)Nc4ccnc(C(F)(F)F)c4)c3C(F)(F)F)c2n1 [Compound I-5]
7,< 500,Cn1nc(-c2c[nH]c3ncccc23)c(C(F)(F)F)c1C(=O)Nc1ccnc(C(F)(F)F)c1 [Compound I-6]
8,500 to 2500,Cn1nc(-c2cccc3cccnc23)c(C(F)(F)F)c1C(=O)Nc1ccnc(C(F)(F)F)c1 [Compound I-7]
9,2500 to 10000,Cn1nc(-c2ccc(=O)n(C)c2)c(C(F)(F)F)c1C(=O)Nc1ccnc(C(F)(F)F)c1 [Compound I-8]
10,< 500,Cn1nc(-c2cccc3ocnc23)c(C(F)(F)F)c1C(=O)Nc1ccnc(C(F)(F)F)c1 [Compound I-9]
11,500 to 2500,Cn1nc(-c2cccc3nc[nH]c23)c(C(F)(F)F)c1C(=O)Nc1ccnc(C(F)(F)F)c1 [Compound I-10]
12,< 500,Cn1nc(-c2cccc3ncoc23)c(C(F)(F)F)c1C(=O)Nc1ccnc(C(F)(F)F)c1 [Compound I-11]
13,500 to 2500,Cn1nc(-c2cccc3c2CC(=O)N3)c(C(F)(F)F)c1C(=O)Nc1ccnc(C(F)(F)F)c1 [Compound I-12]
14,500 to 2500,Cn1nc(-c2cccc3nccn23)c(C(F)(F)F)c1C(=O)Nc1ccnc(C(F)(F)F)c1 [Compound I-13]
15,< 500,Cn1nc(-c2ccnc3ccoc23)c(C(F)(F)F)c1C(=O)Nc1ccnc(C(F)(F)F)c1 [Compound I-14]
16,> 10000,Cn1nc(-c2cnc3ncccn23)c(C(F)(F)F)c1C(=O)Nc1ccnc(C(F)(F)F)c1 [Compound I-15]
17,> 10000,Cn1nc(-c2cnc3cccnn23)c(C(F)(F)F)c1C(=O)Nc1ccnc(C(F)(F)F)c1 [Compound I-16]
18,500 to 2500,Cc1ccc(-c2nn(C)c(C(=O)Nc3ccnc(C(F)(F)F)c3)c2C(F)(F)F)c(Cl)c1 [Compound I-18]
19,500 to 2500,COc1ccncc1-c1nn(C)c(C(=O)Nc2ccnc(C(F)(F)F)c2)c1C(F)(F)F [Compound I-19]
20,500 to 2500,COc1cccc(OC)c1-c1nn(C)c(C(=O)Nc2ccnc(C(F)(F)F)c2)c1C(F)(F)F [Compound I-20]
21,500 to 2500,Cn1nc(-c2cccc3nccnc23)c(C(F)(F)F)c1C(=O)Nc1ccnc(C(F)(F)F)c1 [Compound I-21]

row,IC50 [nM],Structure (SMILES)
1,500 to 2500,Cn1nc(-c2ccc(C#N)c3ncccc23)c(C(F)(F)F)c1C(=O)Nc1ccnc(C(F)(F)F)c1 [Compound I-22]
2,500 to 2500,Cn1nc(-c2cccc3c2NC(=O)C3)c(C(F)(F)F)c1C(=O)Nc1ccnc(C(F)(F)F)c1 [Compound I-23]
3,500 to 2500,Cn1nc(-c2cccc3c(C#N)nccc23)c(C(F)(F)F)c1C(=O)Nc1ccnc(C(F)(F)F)c1 [Compound I-24]
4,2500 to 10000,Cn1nc(-c2cccc3c2OCCCO3)c(C(F)(F)F)c1C(=O)Nc1ccnc(C(F)(F)F)c1 [Compound I-25]
5,> 10000,Cn1nc(-c2cnn3c2OCCC3)c(C(F)(F)F)c1C(=O)Nc1ccnc(C(F)(F)F)c1 [Compound I-26]
6,500 to 2500,Cn1nc(-c2cccc3cnccc23)c(C(F)(F)F)c1C(=O)Nc1ccnc(C(F)(F)F)c1 [Compound I-27]
7,2500 to 10000,Cn1nc(-c2ccccc2OC2COC2)c(C(F)(F)F)c1C(=O)Nc1ccnc(C(F)(F)F)c1 [Compound I-28]
8,< 500,Cn1nc(-c2cccc3ccoc23)c(C(F)(F)F)c1C(=O)Nc1ccnc(C(F)(F)F)c1 [Compound I-29]
9,< 500,Cn1nc(-c2cccc3ccoc23)c(C(F)(F)F)c1C(=O)Nc1cnc(-n2nccn2)c(C#N)c1 [Compound I-30]
10,< 500,Cn1nc(-c2cccc3cnccc23)c(C(F)(F)F)c1C(=O)Nc1cnc(-n2nccn2)c(C#N)c1 [Compound I-31]
11,> 10000,Cn1nc(/C=C/c2ccccc2)c(C(F)(F)F)c1C(=O)Nc1ccnc(C(F)(F)F)c1 [Compound I-32]
12,< 500,Cn1nc(-c2cccc3c2OCO3)c(C(F)(F)F)c1C(=O)Nc1ccnc(C(F)(F)F)c1 [Compound I-33]
13,500 to 2500,Cn1nc(-c2ccccc2OC2COC2)c(C(F)(F)F)c1C(=O)Nc1cnc(-n2nccn2)c(C#N)c1 [Compound I-34]
14,< 500,Cn1nc(-c2ccc(C#N)cc2Cl)c(C(F)(F)F)c1C(=O)Nc1cnc(-n2nccn2)c(C#N)c1 [Compound I-35]
15,< 500,Cn1nc(-c2ccc(C#N)cc2Cl)c(C(F)(F)F)c1C(=O)Nc1cnc(-n2nccn2)c(Cl)c1 [Compound I-36]
16,> 10000,Cn1nc(-c2ccc3cnccc3c2)c(C(F)(F)F)c1C(=O)Nc1ccnc(C(F)(F)F)c1 [Compound I-37]
17,500 to 2500,Cn1nc(-c2cccc3ncccc23)c(C(F)(F)F)c1C(=O)Nc1cnc(-n2nccn2)c(C#N)c1 [Compound I-38]
18,500 to 2500,Cn1nc(-c2cccc3ncccc23)c(C(F)(F)F)c1C(=O)Nc1ccnc(C(F)(F)F)c1 [Compound I-39]
19,< 500,Cn1nc(-c2ccc(C#N)cc2Cl)c(C(F)(F)F)c1C(=O)Nc1ccnc(C(F)(F)F)c1 [Compound I-41]
20,< 500,"Cn1nc(-c2cncc3sccc23)c(C(F)(F)F)c1C(=O)Nc1ccnc(C(F)(F)F)c1 [Compound I-42, 1-methyl-3-(thieno[2,3-c]pyridin-4-yl)-4-(trifluoromethyl)-N-(2-(trifluoromethyl)pyridin-4-yl)-1H-pyrazole-5-carboxamide]"
